The source of these data is ChEMBL document CHEMBL1139135, “Orally active 4-amino-5-diarylurea-furo[2,3-d]pyrimidine derivatives as anti-angiogenic agent inhibiting VEGFR2 and Tie-2” (Bioorg Med Chem Lett, 2007).

Calls of active or inactive are those of the source. The calls are words filed in the database; no cut-off is given here.

Data set [1] concerns the target T1, Angiopoietin-1 receptor (Homo sapiens, UniProt Q02763). The data set can be described thus: Inhibition of human Tie2 by HTRF method. Background: TR-FRET usually uses a lanthanide donor and a delayed reading to cut background.
Target sequence in this assay (Q02763 whole entry): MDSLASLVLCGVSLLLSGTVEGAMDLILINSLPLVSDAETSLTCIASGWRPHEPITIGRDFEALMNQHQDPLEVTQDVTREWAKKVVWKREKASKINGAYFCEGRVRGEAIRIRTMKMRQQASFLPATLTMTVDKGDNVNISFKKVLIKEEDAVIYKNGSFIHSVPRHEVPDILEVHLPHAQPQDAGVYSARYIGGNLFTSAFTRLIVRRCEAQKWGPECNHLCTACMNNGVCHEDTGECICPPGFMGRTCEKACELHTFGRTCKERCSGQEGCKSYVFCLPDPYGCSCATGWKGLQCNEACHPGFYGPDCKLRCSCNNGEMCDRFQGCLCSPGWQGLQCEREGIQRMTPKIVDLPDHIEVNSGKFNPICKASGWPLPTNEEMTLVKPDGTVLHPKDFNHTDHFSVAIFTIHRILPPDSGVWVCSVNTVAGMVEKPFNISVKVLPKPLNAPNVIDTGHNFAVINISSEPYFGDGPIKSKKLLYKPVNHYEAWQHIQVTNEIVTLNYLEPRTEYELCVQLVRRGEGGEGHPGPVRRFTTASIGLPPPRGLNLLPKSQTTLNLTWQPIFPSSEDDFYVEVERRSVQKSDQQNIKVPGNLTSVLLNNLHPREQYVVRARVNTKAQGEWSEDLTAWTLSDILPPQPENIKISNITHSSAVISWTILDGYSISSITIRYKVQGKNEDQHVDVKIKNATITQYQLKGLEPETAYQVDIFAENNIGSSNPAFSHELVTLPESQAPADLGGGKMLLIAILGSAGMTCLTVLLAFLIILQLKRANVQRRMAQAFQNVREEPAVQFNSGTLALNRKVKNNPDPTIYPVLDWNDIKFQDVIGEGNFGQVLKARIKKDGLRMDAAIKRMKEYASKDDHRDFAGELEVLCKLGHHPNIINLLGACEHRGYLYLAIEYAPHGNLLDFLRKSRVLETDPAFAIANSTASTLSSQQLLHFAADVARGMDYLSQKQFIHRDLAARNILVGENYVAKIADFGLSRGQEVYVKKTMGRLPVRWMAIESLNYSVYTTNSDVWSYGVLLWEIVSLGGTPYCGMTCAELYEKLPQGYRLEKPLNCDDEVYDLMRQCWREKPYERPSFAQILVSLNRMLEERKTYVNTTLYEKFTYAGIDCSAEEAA
The target in data set [2] is Vascular endothelial growth factor receptor 2 (Homo sapiens, UniProt P35968). The data set can be described thus: Inhibition of human VEGFR2 by HTRF method.
Vascular endothelial growth factor receptor 2, sequence (P35968 whole entry, looked up): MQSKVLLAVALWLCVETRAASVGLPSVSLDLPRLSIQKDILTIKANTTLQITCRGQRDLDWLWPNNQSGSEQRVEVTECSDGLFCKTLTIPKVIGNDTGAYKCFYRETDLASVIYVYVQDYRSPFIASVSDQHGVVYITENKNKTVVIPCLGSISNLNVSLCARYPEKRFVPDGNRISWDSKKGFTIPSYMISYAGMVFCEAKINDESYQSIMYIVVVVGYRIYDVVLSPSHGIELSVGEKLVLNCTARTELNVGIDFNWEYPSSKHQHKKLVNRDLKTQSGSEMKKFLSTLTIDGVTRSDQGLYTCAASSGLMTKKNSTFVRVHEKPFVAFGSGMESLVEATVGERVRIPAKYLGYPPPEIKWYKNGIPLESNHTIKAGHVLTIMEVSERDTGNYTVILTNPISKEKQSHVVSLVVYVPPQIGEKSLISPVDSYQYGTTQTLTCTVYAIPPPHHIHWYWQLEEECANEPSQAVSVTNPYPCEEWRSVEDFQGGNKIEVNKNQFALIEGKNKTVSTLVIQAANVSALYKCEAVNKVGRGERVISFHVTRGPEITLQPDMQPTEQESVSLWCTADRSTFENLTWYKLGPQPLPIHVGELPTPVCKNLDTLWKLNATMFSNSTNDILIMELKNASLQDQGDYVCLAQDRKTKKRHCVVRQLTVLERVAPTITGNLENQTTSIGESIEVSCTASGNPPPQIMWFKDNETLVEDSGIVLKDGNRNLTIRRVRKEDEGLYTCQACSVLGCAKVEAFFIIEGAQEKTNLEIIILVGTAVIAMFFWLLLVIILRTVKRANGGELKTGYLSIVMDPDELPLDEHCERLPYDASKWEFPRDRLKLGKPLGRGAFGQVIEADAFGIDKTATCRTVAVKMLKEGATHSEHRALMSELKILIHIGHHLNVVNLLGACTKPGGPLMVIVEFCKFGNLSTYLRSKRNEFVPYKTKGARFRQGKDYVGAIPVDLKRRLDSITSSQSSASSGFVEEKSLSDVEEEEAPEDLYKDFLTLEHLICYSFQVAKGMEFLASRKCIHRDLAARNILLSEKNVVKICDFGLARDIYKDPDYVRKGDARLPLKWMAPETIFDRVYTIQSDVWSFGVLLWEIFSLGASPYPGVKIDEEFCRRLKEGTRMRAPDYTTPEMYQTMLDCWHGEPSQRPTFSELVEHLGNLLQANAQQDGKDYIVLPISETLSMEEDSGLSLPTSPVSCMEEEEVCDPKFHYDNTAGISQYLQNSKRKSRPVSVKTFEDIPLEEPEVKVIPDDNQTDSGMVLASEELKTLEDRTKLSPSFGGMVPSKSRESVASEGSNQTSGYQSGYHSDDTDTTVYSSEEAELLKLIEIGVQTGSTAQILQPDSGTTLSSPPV
The next data set has as its system HUVEC. In words: Growth inhibition of VEGF-stimulated human HUVEC cells.
The target in data set [3] is T1, Angiopoietin-1 receptor. The data set can be described thus: Inhibition of c-fms/Tie2 chimeric receptor transfected in 3T3 cell assessed as autophosphorylation activity. Format: cell-based.
Target sequence in this assay (Q02763 23-1124 limits assumed): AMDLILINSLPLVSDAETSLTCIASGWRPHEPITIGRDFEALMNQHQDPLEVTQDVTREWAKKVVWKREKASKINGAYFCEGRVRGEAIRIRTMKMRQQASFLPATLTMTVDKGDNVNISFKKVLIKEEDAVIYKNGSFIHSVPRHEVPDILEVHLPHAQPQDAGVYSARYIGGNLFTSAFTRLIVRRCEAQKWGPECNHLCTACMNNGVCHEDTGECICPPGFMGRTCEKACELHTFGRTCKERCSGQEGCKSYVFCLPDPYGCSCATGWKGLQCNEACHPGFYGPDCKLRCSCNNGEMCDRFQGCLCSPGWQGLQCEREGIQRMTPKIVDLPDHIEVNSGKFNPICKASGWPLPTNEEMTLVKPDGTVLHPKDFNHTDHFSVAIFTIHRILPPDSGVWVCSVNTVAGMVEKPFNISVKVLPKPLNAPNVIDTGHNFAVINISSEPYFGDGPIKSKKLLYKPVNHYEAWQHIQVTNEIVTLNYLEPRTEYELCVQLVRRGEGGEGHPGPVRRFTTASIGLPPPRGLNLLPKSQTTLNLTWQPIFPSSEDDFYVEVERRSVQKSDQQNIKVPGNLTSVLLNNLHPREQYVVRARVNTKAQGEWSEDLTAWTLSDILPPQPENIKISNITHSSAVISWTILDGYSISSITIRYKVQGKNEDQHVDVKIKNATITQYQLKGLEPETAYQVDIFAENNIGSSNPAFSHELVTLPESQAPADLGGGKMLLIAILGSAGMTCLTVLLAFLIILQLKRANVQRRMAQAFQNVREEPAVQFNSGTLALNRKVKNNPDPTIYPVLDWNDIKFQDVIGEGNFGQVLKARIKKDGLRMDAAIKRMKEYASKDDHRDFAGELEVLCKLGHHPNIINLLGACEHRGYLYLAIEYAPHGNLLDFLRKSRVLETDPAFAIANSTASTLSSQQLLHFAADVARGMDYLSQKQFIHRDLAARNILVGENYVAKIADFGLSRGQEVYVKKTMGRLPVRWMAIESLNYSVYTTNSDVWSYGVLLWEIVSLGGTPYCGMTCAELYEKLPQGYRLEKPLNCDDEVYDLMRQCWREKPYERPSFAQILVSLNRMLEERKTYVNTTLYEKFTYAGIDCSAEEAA
A further data set concerns HFF. The data set can be described thus: Cytotoxicity against human HFF cells after 3 days. The settings on record: 72 h.
The subject of data set [4] is HT-29. In words: Cytotoxicity against human HT29 cells after 3 days. The settings on record: HT-29, 72 h.
The nature of data set [5]: Cmax in CD1 mouse at 10.7 mg/kg, po. The class given is ADME, organism-based. Also on record: dose 10.7 mg/kg, route oral. Conditions: in vivo.
Data set [6] in a line: Tmax in CD1 mouse at 10.7 mg/kg, po. Format: ADME, organism-based. Also on record: dose 10.7 mg/kg, route oral. The settings on record: in vivo.
Data set [7] can be described thus: AUC (0 to t) in CD1 mouse at 10.7 mg/kg, po. The class given is ADME, organism-based. Also on record: dose 10.7 mg/kg, route oral. Conditions: plasma.
Data set [8] concerns HT-29. The data set can be described thus: Antiangiogenic activity against human HT29 cells xenografted in nude CD1 mouse. The class given is functional. (A xenograft is tissue or cells of one species grown in another, often human tumour cells in immunodeficient mice.)
Data set [9] concerns HT-29. In words: Inhibition of tumor growth in human HT29 cells xenografted in orally dosed nude CD1 mouse. Format: functional, organism-based.
Data set [10] concerns HT-29. In words: Antiangiogenic activity against human HT29 cells xenografted in nude CD1 mouse assessed as decrease in blood vessel density at 3 mg/kg, po. The class given is functional. More on the design: scale not given: the % may be the effect or the level left.
The test system of data set [11] is HT-29. The data set can be described thus: Antiangiogenic activity against human HT29 cells xenografted in nude CD1 mouse assessed as decrease in blood vessel density at 10 mg/kg, po. More on the design: scale not given: the % may be the effect or the level left. The class given is functional.
Data set [12] concerns HT-29. The data set can be described thus: Antiangiogenic activity against human HT29 cells xenografted in nude CD1 mouse assessed as decrease in blood vessel density at 30 mg/kg, po. Format: functional. More on the design: scale not given: the % may be the effect or the level left.
The target of data set [13] is RAC-gamma serine/threonine-protein kinase (Homo sapiens, UniProt Q9Y243). The data set can be described thus: Inhibition of human Akt3.
RAC-gamma serine/threonine-protein kinase, sequence (Q9Y243 whole entry): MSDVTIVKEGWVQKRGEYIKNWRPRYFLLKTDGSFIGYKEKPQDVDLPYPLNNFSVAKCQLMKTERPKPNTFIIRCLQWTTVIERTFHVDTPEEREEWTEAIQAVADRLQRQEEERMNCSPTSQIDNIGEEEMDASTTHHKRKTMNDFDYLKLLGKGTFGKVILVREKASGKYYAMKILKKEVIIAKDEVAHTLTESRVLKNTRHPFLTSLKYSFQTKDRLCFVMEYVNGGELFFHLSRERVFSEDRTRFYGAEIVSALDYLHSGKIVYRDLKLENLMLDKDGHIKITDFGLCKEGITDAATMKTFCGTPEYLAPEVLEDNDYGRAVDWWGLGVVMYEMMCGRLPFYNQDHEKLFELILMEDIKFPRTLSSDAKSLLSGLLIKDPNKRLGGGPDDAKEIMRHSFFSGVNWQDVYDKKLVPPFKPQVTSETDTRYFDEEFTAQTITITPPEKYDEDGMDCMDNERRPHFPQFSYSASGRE
In data set [14] the target is Cyclin-dependent kinase 2 (Homo sapiens, UniProt P24941). The data set can be described thus: Inhibition of human CDK2.
The target of data set [15] is Epidermal growth factor receptor (Homo sapiens, UniProt P00533). In words: Inhibition of human EGFR.
For data set [16], the target named is Glycogen synthase kinase-3 (Homo sapiens, UniProt P49840+P49841). The data set can be described thus: Inhibition of human GSK3. Format: protein assay.
The target in data set [17] is Proto-oncogene tyrosine-protein kinase Src (Homo sapiens, UniProt P12931). In words: Inhibition of human SRC.
Data set [18] concerns the target Macrophage colony-stimulating factor 1 receptor (Homo sapiens, UniProt P07333). In words: Inhibition of human cFMS.
The target in data set [19] is Platelet-derived growth factor receptor (Homo sapiens, UniProt P09619+P16234). In words: Inhibition of human PDGFR. The class given is protein-complex assay.
For data set [20], the target named is Vascular endothelial growth factor receptor 1 (Homo sapiens, UniProt P17948). The data set can be described thus: Inhibition of human VEGFR1.
Data set [21] addresses Vascular endothelial growth factor receptor 3 (Homo sapiens, UniProt P35916). The data set can be described thus: Inhibition of human VGFR3.

Macrophage colony-stimulating factor 1 receptor, sequence (P07333 whole entry): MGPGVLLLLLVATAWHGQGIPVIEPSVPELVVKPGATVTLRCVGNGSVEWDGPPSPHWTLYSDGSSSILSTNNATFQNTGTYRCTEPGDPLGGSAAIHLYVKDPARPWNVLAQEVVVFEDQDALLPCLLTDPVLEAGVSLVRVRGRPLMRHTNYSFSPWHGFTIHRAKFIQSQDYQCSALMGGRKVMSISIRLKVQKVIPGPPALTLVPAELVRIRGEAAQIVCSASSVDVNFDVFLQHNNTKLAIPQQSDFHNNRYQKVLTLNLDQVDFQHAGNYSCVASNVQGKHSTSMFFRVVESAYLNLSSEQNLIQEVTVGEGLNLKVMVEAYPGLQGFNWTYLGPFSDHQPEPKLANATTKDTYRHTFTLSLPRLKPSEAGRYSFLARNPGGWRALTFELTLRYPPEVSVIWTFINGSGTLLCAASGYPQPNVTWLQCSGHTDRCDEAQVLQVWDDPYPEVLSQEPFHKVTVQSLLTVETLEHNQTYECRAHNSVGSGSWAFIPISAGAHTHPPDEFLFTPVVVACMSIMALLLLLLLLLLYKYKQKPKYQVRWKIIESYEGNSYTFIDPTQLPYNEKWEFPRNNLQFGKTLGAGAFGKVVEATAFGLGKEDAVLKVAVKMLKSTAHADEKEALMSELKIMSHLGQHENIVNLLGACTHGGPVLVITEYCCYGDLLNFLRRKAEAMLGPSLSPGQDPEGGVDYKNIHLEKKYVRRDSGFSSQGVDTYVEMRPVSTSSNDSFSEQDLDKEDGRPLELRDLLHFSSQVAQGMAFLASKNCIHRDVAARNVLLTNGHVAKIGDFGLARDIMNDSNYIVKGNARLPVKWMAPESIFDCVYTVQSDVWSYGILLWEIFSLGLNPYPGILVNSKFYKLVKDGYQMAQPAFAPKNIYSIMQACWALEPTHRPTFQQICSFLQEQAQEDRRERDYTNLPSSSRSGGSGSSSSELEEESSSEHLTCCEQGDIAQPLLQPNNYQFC

Turning to `Nc1ncnc2occ(-c3ccc(NC(=O)Nc4cccc5ccccc45)cc3)c12`, the IC50 – broadly, the concentration needed to halve the response being measured – against Angiopoietin-1 receptor [1] is 182 nM; in data set [2], 447 nM.

As for `Nc1ncnc2occ(-c3ccc(NC(=O)Nc4cccc(Oc5ccccc5)c4)cc3)c12`, the IC50 against Angiopoietin-1 receptor [1] is 407 nM; in data set [2], 1740 nM.

On to `COc1ccc(F)c(NC(=O)Nc2ccc(-c3coc4ncnc(N)c34)cc2)c1`, for which the IC50 against Angiopoietin-1 receptor [1] is 224 nM; in [2], 331 nM.

As to `Nc1ncnc2occ(-c3ccc(NC(=O)Nc4ccc5ccccc5c4)cc3)c12`, the IC50 was 81.3 nM on Angiopoietin-1 receptor [1] and 24 nM in [2].

As to `Nc1ncnc2occ(-c3ccc(NC(=O)Nc4cc(C(F)(F)F)ccc4Cl)cc3)c12`, the values for the IC50 (at Angiopoietin-1 receptor [1]; in data set [2]) were 204 nM and 186 nM, respectively.

Consider `Nc1ncnc2occ(-c3ccc(NC(=O)Nc4cc(C(F)(F)F)ccc4F)cc3)c12` [GW770249X], for which the IC50 at Angiopoietin-1 receptor [1] is 13.5 nM; in data set [2] it was 7.76 nM; in the data set on HUVEC, 2.6 nM; on Angiopoietin-1 receptor [3] it was 18.3 nM; with HFF, 2510 nM; in the data set with HT-29 [4], 5080 nM. Further, the concentration for half-maximal inhibition (IC50) was 17400 nM in data set [13]; 17800 nM in data set [14]; 10000 nM in data set [15]; 537 nM in data set [17]; 38.9 nM in data set [18]; 27.5 nM in data set [19]. The figures for the IC50 in data set [20] and in data set [21] were 8.51 nM and 7.59 nM, respectively. Further, the Cmax (in general, the peak of the concentration-time curve) in data set [5] came out at 2720 ng/mL. The Tmax – broadly, the time from dosing to the highest level – in data set [6] is 2 h. The AUC(0-t) (as a rule, the area under the concentration-time curve up to a stated or last time point) in data set [7] is 20000 ng·h/mL. Further, in the data set on HT-29 [8], the outcome was Active. Also, the Activity result with HT-29 [9] was “Dose-dependent effect”; with HT-29 [10], 24.3%; in the data set on HT-29 [11] it was 35.6%; in the data set with HT-29 [12] it was 62.9%. For the same compound, the “Log IC50” value in [16] is -5.66.

The compound `Nc1ncnc2occ(-c3ccc(NC(=O)Nc4cc(C(F)(F)F)cc(C(F)(F)F)c4)cc3)c12` [GW795486X] showed an IC50 against Angiopoietin-1 receptor [1] of 380 nM.

Regarding `Nc1ncnc2occ(-c3ccc(NC(=O)Nc4cccc(C(F)(F)F)c4)cc3)c12` [GW795493X], the IC50 at Angiopoietin-1 receptor [1] is 10.2 nM; in data set [2], 7.08 nM.
